Measured values as given in ChEMBL document CHEMBL2074342, “Kinetic analysis of rhodamines efflux mediated by the multidrug resistance protein (MRP1)” (Biophys J, 2003).

Biological target: Multidrug resistance-associated protein 1 (Homo sapiens, UniProt P33527)
Test: TP_TRANSPORTER: intracellular accumulation in MRP1-expressing GLC4/ADR cell
Assay type: functional, cell-based
Settings: glc-4/adr

Multidrug resistance-associated protein 1, sequence (P33527 whole entry): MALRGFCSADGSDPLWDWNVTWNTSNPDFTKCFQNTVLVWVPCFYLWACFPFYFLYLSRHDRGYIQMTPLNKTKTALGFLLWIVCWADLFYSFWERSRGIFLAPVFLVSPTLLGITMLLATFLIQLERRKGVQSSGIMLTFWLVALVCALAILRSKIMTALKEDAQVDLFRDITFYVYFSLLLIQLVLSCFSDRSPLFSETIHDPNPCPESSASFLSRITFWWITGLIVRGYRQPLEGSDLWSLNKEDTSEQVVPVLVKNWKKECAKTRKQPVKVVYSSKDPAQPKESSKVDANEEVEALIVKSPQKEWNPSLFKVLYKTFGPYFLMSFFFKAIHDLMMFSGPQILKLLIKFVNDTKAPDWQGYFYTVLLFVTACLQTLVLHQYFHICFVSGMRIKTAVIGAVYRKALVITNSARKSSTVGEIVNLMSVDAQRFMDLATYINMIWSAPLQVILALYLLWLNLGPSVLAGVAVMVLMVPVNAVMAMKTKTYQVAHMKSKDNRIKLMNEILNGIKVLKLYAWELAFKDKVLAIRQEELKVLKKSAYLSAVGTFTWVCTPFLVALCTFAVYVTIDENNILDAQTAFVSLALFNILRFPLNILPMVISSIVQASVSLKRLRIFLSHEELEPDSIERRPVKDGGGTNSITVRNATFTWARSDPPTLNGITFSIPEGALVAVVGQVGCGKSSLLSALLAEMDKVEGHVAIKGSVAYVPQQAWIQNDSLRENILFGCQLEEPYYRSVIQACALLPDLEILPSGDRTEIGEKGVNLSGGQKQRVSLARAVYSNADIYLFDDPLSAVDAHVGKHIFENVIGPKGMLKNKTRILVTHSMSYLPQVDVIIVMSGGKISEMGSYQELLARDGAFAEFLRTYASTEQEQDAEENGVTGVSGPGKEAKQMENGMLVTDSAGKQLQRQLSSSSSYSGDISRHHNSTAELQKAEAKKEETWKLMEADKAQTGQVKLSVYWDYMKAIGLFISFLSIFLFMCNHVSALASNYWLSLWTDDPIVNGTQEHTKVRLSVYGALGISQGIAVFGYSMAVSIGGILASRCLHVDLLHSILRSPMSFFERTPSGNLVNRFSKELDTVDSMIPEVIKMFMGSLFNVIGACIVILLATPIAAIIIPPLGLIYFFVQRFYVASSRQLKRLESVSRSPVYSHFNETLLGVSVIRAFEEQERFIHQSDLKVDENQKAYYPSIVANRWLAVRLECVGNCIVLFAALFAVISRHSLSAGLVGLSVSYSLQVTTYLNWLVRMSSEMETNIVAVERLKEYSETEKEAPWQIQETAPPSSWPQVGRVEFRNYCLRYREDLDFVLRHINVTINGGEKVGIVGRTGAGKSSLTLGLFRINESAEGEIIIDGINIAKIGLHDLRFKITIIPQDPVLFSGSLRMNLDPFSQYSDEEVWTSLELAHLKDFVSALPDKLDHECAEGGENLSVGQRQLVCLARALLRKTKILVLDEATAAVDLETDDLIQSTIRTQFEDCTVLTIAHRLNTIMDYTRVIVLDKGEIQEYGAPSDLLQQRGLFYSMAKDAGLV

Activity	Structure (SMILES)
substrate [+]	COC(=O)c1ccccc1-c1c2ccc(=[N+](C)C)cc-2oc2cc(N(C)C)ccc12 [RHODAMINE II]
substrate [+]	CC/N=c1\cc2oc3cc(NCC)c(C)cc3c(-c3ccccc3C(=O)OCC)c-2cc1C.Cl [RHODAMINE 6G HYDROCHLORIDE]
substrate [+]	CCOC(=O)c1ccccc1-c1c2ccc(=[N+](C)C)cc-2oc2cc(N(C)C)ccc12 [RHODAMINE I]

Structure (SMILES)	Activity
CN(C)c1ccc2c(-c3ccccc3C(=O)[O-])c3ccc(N(C)C)cc3[o+]c2c1 [TETRAMETHYLRHODAMINE]	substrate [+]
